These are literature values, as cited in patent US12728106B2, “Multiparticulate pharmaceutical composition of tamsulosin and solifenacin” (priority 2020, dated 2026).

Like-named read-outs stand apart in the source and are kept apart here.

Take `O=C(O[C@H]1CN2CCC1CC2)N1CCc2ccccc2[C@@H]1c1ccccc1` [Solifenacin succinate, butanedioic acid compound with (1S)-(3R)-1-azabicyclo[2.2.2]oct-3-yl 3,4-dihydro-1-phenyl-2(1H)-iso-quinolinecarboxylate (1:1)]: where the note is “room temperature, dimethyl sulfoxide”, the “Solubility in dimethyl sulfoxide” value is recorded as “freely soluble”. Moreover, the “Solubility in glacial acetic acid” value (room temperature, glacial acetic acid) is reported as “freely soluble”. In addition, the Solubility in methanol entry (room temperature, methanol) is listed as “freely soluble”. In addition, the Solubility in water entry (room temperature) is “freely soluble”.

As for `CCOc1ccccc1OCCN[C@H](C)Cc1ccc(OC)c(S(N)(=O)=O)c1.Cl` [Tamsulosin hydrochloride, (−)-(R)-5-[2-[[2-(o-Ethoxyphenoxy)ethyl]amino]propyl]-2methoxybenzenesulfonamide, monohydrochloride], the Solubility in water result is “sparingly soluble”.
